{"source": "paper PMC10410761", "about": "(Proceedings of the National Academy of Sciences of the …, 2023)", "key": {"NaV1.7 [1]": {"target": "NaV1.7 (Rattus norvegicus, UniProt O08562)", "sequence (O08562 whole entry)": "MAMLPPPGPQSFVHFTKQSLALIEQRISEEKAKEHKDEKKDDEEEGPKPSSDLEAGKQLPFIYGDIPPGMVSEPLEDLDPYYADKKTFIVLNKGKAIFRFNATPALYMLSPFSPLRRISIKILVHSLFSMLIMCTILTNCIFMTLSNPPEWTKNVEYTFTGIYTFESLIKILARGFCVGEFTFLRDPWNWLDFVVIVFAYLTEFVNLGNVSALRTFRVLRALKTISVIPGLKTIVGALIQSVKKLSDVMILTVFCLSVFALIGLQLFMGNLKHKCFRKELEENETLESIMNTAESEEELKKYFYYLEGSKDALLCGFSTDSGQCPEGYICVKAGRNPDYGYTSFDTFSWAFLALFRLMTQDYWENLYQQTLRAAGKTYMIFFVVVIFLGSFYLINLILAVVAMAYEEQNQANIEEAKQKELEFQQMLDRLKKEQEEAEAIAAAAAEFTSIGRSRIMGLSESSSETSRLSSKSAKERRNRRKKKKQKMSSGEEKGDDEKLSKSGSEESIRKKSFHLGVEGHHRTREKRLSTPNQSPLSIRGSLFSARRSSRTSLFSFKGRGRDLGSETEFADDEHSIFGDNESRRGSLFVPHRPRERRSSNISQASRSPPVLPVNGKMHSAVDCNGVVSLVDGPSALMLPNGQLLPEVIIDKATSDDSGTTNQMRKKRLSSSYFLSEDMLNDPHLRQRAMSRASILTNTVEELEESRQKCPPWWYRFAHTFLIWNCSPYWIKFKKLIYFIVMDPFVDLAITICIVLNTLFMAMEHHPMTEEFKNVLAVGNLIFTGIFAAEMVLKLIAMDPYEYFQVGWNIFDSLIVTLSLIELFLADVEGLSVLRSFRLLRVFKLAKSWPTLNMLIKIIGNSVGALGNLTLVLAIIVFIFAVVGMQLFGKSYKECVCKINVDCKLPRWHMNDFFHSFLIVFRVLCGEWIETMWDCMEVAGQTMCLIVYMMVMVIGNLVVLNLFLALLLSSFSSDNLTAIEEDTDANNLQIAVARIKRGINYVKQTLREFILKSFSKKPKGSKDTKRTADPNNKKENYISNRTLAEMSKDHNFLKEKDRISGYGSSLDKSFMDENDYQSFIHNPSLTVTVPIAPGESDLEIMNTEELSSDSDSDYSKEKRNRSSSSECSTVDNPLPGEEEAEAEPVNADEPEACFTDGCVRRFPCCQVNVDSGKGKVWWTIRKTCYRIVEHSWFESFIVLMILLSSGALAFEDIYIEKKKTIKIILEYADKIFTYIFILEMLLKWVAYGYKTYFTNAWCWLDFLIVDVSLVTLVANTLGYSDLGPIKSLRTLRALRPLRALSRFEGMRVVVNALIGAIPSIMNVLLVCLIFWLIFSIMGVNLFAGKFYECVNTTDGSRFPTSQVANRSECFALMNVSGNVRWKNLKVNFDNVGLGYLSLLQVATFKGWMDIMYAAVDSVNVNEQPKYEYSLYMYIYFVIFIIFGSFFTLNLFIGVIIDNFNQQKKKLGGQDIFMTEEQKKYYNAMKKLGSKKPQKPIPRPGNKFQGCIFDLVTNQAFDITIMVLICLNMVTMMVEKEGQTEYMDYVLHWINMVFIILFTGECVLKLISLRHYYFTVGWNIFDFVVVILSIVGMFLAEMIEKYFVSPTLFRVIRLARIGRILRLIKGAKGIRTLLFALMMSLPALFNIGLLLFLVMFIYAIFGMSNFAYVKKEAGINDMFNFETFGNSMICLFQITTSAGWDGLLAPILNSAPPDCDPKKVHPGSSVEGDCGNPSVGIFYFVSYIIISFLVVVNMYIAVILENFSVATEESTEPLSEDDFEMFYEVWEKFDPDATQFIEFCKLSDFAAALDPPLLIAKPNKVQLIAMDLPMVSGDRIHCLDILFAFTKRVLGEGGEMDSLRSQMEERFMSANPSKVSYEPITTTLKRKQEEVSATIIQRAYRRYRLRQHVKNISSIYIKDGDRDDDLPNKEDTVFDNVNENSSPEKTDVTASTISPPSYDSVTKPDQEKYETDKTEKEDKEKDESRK", "experiment": "Whole-cell voltage clamp, sodium currents in rat DRG neurons", "assay_type": "cell-based", "conditions": "Pitstop2 20 µM, vs AAV-SCR control"}, "NaV1.7 [2]": {"system": "NaV1.7", "experiment": "Whole-cell voltage clamp, sodium currents in rat DRG neurons", "assay_type": "cell-based", "conditions": "Pitstop2 20 µM, 30 min before recording, rat DRG neurons"}}}
{"smiles": "O=C1NC(=NS(=O)(=O)c2cccc3ccccc23)S/C1=C\\c1ccc(Br)cc1", "note": "[Pitstop2]", "values": [{"measurement": "Inhibition of NaV1.7 current in AAV-NaV1.7-CRS transfected DRG neurons", "setting": "NaV1.7 [1]", "result": "rescued"}, {"measurement": "Decrease of sodium currents imposed by Myr-TAT-NaV1.7-CRS", "setting": "NaV1.7 [2]", "result": "rescued"}]}
